The target of assay [1] is T1, Alpha-1A adrenergic receptor (Homo sapiens, UniProt P35348).
T1 sequence (P35348 whole entry): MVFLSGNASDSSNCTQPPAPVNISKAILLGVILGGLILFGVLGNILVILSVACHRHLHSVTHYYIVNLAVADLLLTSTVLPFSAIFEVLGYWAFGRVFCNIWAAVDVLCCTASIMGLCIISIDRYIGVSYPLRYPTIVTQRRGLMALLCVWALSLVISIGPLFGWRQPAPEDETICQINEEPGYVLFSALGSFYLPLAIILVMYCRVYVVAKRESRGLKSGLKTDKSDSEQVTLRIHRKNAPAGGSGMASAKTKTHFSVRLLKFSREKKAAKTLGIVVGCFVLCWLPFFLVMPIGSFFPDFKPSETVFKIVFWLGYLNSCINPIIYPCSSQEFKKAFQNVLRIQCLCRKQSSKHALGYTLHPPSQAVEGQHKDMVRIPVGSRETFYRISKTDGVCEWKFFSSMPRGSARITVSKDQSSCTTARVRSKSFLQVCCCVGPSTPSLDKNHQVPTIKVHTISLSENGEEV
The format is functional, cell-based.

In assay [2] the target is T2, Cannabinoid receptor 1 (Homo sapiens, UniProt P21554).
Assay [3] has as its target Gamma-aminobutyric acid receptor subunit alpha-1 (Rattus norvegicus, UniProt P62813).
The target in assay [4] is T2, Cannabinoid receptor 1. The format is functional, cell-based.
In assay [5] the target is T3, Gastrin/cholecystokinin type B receptor (Homo sapiens, UniProt P32239).
T3 sequence (P32239 whole entry): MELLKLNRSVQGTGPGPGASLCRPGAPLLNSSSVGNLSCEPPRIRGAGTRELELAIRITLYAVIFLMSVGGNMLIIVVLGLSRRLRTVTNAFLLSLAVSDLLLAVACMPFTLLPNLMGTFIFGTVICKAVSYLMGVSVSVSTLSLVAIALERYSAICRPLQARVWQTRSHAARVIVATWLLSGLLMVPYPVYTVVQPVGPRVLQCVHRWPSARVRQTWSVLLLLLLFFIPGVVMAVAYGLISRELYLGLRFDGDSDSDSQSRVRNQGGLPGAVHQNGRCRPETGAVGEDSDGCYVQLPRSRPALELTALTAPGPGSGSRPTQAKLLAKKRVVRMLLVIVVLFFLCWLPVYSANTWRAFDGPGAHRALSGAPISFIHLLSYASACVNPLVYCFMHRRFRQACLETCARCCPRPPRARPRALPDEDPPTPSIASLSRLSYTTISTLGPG

For assay [6], the target named is Vasopressin V1a receptor (Homo sapiens, UniProt P37288).
Assay [7] concerns the target T4, Amine oxidase [flavin-containing] A (Homo sapiens, UniProt P21397).
T4 sequence (P21397 whole entry): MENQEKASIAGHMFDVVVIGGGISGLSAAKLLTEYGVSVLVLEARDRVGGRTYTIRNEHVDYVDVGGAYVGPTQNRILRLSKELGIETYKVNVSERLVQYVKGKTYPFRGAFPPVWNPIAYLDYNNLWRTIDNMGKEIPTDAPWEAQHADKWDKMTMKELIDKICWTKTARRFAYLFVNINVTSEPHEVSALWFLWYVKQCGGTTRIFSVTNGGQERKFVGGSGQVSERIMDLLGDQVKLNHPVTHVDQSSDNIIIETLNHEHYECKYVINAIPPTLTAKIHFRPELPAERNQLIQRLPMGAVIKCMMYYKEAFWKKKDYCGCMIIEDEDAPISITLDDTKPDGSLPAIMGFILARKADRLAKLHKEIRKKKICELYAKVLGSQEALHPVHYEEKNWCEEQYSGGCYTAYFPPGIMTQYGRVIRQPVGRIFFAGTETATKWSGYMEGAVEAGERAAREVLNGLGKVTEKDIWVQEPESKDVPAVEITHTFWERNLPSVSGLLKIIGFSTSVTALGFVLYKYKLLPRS
The format is functional.

Assay [8] has as its target Mu-type opioid receptor (Homo sapiens, UniProt P35372).
Assay [9] has as its target Sodium-dependent dopamine transporter (Homo sapiens, UniProt Q01959).
Assay [10] addresses T5, Thromboxane A2 receptor (Homo sapiens, UniProt P21731).
T5 sequence (P21731 whole entry): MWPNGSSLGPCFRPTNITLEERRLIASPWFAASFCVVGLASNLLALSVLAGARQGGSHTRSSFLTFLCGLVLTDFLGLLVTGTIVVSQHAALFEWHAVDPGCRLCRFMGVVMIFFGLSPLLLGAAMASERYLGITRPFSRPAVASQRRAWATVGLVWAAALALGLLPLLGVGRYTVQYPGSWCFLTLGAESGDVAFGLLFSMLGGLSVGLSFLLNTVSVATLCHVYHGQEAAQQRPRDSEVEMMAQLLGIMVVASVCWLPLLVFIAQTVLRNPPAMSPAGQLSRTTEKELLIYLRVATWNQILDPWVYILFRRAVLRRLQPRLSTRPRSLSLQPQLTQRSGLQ
The format is functional, cell-based.

Assay [11] has as its target 3',5'-cyclic-AMP phosphodiesterase 4A (Homo sapiens, UniProt P27815). The format is functional.
Assay [12] deals with 5-hydroxytryptamine receptor 2A (Homo sapiens, UniProt P28223). The format is functional, cell-based.
For assay [13], the target named is T6, Muscarinic acetylcholine receptor M1 (Homo sapiens, UniProt P11229).
T6 sequence (P11229 whole entry): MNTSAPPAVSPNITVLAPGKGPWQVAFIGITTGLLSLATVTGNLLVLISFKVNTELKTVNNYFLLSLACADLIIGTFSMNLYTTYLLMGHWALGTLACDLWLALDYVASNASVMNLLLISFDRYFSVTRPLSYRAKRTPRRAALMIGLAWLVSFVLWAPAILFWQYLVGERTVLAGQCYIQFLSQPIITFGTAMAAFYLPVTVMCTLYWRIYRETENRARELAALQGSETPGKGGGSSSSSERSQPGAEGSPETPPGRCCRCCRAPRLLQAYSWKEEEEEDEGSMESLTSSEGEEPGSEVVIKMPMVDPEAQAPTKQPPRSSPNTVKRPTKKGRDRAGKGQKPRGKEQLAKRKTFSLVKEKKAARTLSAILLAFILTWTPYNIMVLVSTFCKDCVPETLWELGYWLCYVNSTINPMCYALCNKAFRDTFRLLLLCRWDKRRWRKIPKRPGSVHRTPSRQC
The format is functional.
Note: assay procedure not described here.

Sequence of Gamma-aminobutyric acid receptor subunit alpha-1 (P62813 whole entry): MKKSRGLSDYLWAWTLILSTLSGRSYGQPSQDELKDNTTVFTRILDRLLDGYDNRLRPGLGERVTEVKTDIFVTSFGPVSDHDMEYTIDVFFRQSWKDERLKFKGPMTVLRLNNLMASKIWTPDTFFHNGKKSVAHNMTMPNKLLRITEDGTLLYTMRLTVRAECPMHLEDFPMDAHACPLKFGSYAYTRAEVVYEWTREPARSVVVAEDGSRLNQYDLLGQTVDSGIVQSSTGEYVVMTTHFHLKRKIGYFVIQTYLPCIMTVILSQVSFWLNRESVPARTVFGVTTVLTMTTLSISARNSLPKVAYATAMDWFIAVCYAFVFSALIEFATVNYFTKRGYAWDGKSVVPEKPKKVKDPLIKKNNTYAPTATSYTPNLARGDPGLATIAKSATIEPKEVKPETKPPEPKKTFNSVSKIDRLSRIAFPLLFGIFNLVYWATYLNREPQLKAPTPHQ
Sequence of Sodium-dependent dopamine transporter (Q01959 whole entry): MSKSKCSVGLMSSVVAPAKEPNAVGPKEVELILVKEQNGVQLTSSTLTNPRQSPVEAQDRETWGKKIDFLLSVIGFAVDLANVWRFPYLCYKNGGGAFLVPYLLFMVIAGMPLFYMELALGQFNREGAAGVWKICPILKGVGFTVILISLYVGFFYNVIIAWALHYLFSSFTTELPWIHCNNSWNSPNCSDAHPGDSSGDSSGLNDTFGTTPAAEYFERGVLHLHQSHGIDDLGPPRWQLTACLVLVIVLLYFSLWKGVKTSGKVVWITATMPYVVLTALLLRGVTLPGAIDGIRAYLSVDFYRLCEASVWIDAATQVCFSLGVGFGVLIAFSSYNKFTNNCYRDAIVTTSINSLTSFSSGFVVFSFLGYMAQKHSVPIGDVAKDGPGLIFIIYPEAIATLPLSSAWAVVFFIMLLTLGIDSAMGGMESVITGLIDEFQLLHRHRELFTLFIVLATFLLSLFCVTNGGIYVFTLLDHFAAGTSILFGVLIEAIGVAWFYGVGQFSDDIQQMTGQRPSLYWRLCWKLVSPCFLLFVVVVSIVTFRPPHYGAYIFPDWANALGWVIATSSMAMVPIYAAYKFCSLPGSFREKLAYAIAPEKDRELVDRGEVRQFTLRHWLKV
Sequence of 5-hydroxytryptamine receptor 2A (P28223 whole entry): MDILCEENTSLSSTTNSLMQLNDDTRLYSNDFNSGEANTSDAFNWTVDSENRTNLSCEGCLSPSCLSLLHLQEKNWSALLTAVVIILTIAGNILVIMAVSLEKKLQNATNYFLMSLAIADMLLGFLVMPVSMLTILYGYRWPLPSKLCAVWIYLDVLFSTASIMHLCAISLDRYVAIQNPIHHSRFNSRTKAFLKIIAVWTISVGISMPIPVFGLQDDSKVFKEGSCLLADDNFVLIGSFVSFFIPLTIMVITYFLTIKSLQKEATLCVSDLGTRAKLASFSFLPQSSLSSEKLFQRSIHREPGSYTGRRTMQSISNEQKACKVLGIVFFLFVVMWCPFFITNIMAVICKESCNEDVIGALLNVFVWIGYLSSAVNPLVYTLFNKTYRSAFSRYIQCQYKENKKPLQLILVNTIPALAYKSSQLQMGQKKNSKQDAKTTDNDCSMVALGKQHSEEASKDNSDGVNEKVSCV
Sequence of Mu-type opioid receptor (P35372 whole entry): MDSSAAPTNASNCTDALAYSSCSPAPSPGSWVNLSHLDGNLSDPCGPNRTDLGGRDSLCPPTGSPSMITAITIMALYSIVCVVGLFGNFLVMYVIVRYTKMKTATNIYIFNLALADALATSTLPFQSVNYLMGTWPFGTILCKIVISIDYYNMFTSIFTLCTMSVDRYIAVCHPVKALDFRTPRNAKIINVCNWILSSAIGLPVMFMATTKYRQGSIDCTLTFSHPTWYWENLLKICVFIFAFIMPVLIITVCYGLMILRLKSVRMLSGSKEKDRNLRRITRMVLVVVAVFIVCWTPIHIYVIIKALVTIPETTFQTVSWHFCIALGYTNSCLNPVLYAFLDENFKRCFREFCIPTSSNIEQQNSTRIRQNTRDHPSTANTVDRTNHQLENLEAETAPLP
Sequence of 3',5'-cyclic-AMP phosphodiesterase 4A (P27815 whole entry): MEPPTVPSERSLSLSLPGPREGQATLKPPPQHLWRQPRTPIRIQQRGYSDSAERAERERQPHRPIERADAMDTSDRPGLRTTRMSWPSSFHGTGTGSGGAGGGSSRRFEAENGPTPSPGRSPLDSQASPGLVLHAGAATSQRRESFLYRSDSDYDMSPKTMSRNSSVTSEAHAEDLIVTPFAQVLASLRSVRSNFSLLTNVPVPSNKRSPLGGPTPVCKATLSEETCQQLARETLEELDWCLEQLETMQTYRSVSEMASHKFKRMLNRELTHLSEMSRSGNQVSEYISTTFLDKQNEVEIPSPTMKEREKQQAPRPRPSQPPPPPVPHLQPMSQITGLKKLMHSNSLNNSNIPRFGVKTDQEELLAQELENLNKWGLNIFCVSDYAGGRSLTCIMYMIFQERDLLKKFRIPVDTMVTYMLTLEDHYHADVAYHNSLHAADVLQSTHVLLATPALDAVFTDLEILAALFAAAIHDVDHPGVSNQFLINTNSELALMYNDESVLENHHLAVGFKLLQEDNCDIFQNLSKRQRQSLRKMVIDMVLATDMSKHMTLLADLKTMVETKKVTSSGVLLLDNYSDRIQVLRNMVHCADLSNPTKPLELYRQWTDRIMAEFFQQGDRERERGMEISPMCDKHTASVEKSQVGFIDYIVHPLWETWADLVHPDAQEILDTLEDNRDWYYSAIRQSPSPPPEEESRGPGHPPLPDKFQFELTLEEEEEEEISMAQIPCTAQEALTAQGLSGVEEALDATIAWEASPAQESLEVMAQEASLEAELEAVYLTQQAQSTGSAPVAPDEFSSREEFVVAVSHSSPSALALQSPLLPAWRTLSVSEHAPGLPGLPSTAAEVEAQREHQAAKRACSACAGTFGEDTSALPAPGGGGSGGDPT
Sequence of Vasopressin V1a receptor (P37288 whole entry): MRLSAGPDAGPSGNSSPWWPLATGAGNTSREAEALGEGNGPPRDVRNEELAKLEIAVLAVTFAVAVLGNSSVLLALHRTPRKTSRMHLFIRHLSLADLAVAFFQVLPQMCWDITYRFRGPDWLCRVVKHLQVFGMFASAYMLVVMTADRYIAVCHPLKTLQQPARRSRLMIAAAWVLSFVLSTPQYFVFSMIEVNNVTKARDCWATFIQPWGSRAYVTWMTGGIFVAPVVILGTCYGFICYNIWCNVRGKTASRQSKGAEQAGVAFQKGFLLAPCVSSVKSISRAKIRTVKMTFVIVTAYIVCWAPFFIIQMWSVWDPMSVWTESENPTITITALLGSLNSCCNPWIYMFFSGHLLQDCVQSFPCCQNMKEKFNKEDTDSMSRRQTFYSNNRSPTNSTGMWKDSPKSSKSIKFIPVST
T2 sequence (P21554 whole entry): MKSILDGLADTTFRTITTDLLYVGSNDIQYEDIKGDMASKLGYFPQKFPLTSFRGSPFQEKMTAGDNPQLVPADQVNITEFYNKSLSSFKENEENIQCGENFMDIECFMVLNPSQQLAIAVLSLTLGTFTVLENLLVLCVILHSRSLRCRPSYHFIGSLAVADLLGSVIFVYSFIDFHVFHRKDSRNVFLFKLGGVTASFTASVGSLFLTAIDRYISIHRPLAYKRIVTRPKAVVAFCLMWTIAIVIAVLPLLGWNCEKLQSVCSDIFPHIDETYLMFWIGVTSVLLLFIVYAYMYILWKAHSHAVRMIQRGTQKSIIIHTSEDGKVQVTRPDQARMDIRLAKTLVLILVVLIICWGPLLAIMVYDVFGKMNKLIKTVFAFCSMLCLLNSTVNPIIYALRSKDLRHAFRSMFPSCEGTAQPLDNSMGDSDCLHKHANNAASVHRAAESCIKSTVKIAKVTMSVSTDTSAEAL

What is called AC50 is the midpoint of the concentration-response curve, whichever way the signal moves. Lower therefore signals greater potency. On to `CCOC(=O)[C@H](CCc1ccccc1)N[C@@H](C)C(=O)N1CCC[C@H]1C(=O)O`, for which the AC50 in [1] was over 30 µM; in assay [2], over 10 µM; in assay [3], over 10 µM; in [4], over 30 µM; in assay [5], over 30 µM; in assay [6], over 10 µM.
Take `CCC[C@@H]1C[C@@H](C(=O)N[C@@H]([C@H]2O[C@H](SC)[C@H](O)[C@@H](O)[C@H]2O)[C@H](C)Cl)N(C)C1` [CLINDAMYCIN]: the AC50 was over 30 µM in [1]; over 10 µM in assay [2]; over 10 µM in [3]; over 30 µM in assay [4]; over 30 µM in [5]; over 10 µM in [6].
On to `CN(C)CCCN1c2ccccc2CCc2ccc(Cl)cc21` [CLOMIPRAMINE], for which the concentration at half-maximal activity (AC50) in assay [1] is over 30 µM; in [2], over 10 µM; in assay [7] it was over 30 µM; in assay [3], over 10 µM; in assay [8] it was 1.9 µM; in assay [9] it was 4.82 µM.
As to `O=C(O)c1cc(-c2ccc(F)cc2F)ccc1O` [DIFLUNISAL], the AC50 in assay [2] and in assay [3] was over 10 µM each time.
As to `C#C[C@]1(O)CC[C@H]2[C@@H]3CCc4cc(O)ccc4[C@H]3CC[C@@]21C` [ETHINYL ESTRADIOL], the AC50 was over 10 µM in [2]; over 30 µM in [7]; over 10 µM in [3]; over 10 µM in assay [10]; 20.1 µM in [11]; 20.6 µM in assay [8]. Further, the AC50 was 0.8 µM in assay [9], over 30 µM in [5] and over 10 µM in assay [6].
Regarding `NC(N)=Nc1nc(CSCCC(N)=NS(N)(=O)=O)cs1` [FAMOTIDINE], the AC50 in assay [1] was over 30 µM; in assay [2], over 10 µM; in assay [3] it was over 10 µM; in assay [4], over 30 µM; in [5], over 30 µM; in assay [6] it was over 10 µM.
Take `CC(C)C(=O)Nc1ccc([N+](=O)[O-])c(C(F)(F)F)c1` [FLUTAMIDE]: the AC50 is over 30 µM in assay [1]; over 10 µM in [2]; over 30 µM in [7]; over 10 µM in assay [3]; 18.4 µM in assay [10]; over 30 µM in assay [11]. Besides, the AC50 in assay [8], in assay [9], in assay [5] and in [6] was over 30 µM each time.
As for `NS(=O)(=O)c1cc2c(cc1Cl)NCNS2(=O)=O` [HYDROCHLOROTHIAZIDE], the AC50 in [2] is over 10 µM; in [3], over 10 µM; in assay [5], over 30 µM; in [6], over 10 µM.
In the case of `NC[C@H]1O[C@H](O[C@H]2[C@H](O)[C@@H](O[C@H]3O[C@H](CO)[C@@H](O)[C@H](N)[C@H]3O)[C@H](N)C[C@@H]2N)[C@H](O)[C@@H](O)[C@@H]1O` [KANAMYCIN], the AC50 in [1] is over 30 µM; in [2], over 10 µM; in [3], over 10 µM.
For `C[C@H]1C[C@@H]2[C@H]([C@@H](O)C[C@@]3(C)[C@H]2CC[C@]3(O)C(=O)CO)[C@@]2(C)C=CC(=O)C=C12` [METHYLPREDNISOLONE], the AC50 in [2] and in assay [3] was over 10 µM throughout.
As to `CCN(CC)CCNC(=O)c1cc(Cl)c(N)cc1OC` [METOCLOPRAMIDE], the AC50 in assay [1] was over 30 µM; in assay [2], over 10 µM; in assay [3], over 10 µM; in [4], over 30 µM; in assay [5], over 30 µM; in assay [6], over 10 µM.
`CC(C)(C(=O)c1cccnc1)c1cccnc1` [METYRAPONE]: the AC50 in [2] and in assay [3] was over 10 µM throughout.
Take `NC(=O)c1ncn([C@@H]2O[C@H](CO)[C@@H](O)[C@H]2O)c1O` [MIZORIBINE]: the AC50 in assay [1], in assay [12], in [4], in [5], in assay [13] and in assay [6] was over 30 µM throughout.
Take `OCCN1CCN(CCCN2c3ccccc3C=Cc3ccccc32)CC1` [OPIPRAMOL]: the half-maximal activity concentration (AC50) in assay [1], in [7], in [12], in assay [10], in assay [4] and in assay [11] was over 30 µM in each case. The AC50 in assay [8] is 19.4 µM; in [9], 10.9 µM; in assay [5], over 30 µM; in assay [13], over 30 µM; in [6], over 30 µM.
Turning to `CC[C@H](C)C(=O)O[C@H]1C[C@H](O)C=C2C=C[C@H](C)[C@H](CC[C@@H](O)C[C@@H](O)CC(=O)O)[C@H]21` [PRAVASTATIN], the AC50 in [1] is over 30 µM; in assay [2], over 10 µM; in assay [3] it was over 10 µM; in assay [4] it was over 30 µM.
For `O=C(NC[C@H]1CN(c2ccc(N3CCOCC3=O)cc2)C(=O)O1)c1ccc(Cl)s1` [RIVAROXABAN], the AC50 in assay [1] is over 30 µM; in assay [7], over 30 µM; in assay [12], over 30 µM; in assay [10], over 3 µM; in assay [11] it was over 30 µM; in assay [8], over 30 µM. Also, the AC50 in assay [9] and in assay [13] was over 30 µM in each case.
Take `NC[C@H]1CC[C@H](C(=O)O)CC1` [TRANEXAMIC ACID]: the AC50 in assay [2] and in assay [3] was over 10 µM each time.
In the case of `CCCS(=O)(=O)Nc1ccc(F)c(C(=O)c2c[nH]c3ncc(-c4ccc(Cl)cc4)cc23)c1F` [VEMURAFENIB], the AC50 in assay [1], in [3], in assay [12], in [4], in assay [5] and in assay [13] was over 30 µM in each case. The AC50 in assay [6] is over 30 µM.

For the origin of these results see ChEMBL document CHEMBL5291721, “A preclinical secondary pharmacology resource illuminates target-adverse drug reaction associations of marketed drugs” (Nat Commun, 2023).
